These results are taken from US8193237B2, “Indole derivative having IκB kinase β inhibitory activity” (Santen Pharmaceutical Co., Ltd., priority 2007, dated 2012).

For this test, the target named is T1, IKKβ (Homo sapiens, UniProt O14920).
T1 construct: purchased Upstate Biotechnology Inc. 14-485
T1 sequence (O14920 1-756): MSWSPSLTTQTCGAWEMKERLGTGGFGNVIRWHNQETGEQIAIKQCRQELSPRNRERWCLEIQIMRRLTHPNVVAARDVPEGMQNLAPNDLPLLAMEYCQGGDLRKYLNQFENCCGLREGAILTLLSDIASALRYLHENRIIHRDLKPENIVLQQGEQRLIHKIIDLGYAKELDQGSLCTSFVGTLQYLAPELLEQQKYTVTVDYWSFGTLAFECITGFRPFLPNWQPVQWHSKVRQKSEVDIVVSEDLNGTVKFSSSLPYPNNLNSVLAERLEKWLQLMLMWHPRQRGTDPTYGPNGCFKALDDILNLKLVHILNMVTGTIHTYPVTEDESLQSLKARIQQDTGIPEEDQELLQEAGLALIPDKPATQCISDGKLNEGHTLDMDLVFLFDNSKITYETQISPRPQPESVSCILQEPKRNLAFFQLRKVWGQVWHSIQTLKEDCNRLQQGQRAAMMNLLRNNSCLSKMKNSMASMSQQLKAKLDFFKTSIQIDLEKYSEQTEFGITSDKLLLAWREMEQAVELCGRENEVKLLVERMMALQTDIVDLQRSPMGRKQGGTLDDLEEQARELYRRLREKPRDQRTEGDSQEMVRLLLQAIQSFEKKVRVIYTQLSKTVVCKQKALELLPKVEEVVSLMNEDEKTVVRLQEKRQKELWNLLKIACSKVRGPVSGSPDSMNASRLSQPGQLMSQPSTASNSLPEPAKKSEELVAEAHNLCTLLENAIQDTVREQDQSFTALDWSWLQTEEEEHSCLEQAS
Put plainly: IKKβ inhibition assay by fluorescence polarization (IMAP kit). Type of test: biochemical. The conditions noted are these: test compound at 1 μM; inhibition rate exceeding 100% is indicated as 100%. On the procedure: In order to evaluate IKKβ inhibitory activity of the present compounds, an IKKβ inhibition assay by the fluorescence polarization method was conducted.
The assay was conducted using IMAP™ IKKβ assay kit (manufactured by Molecular Devices Corporation, catalogue No. R8115) or IMAP™ FP Screening Express kit (manufactured by Molecular Devices Corporation, catalogue No. R8127) and in accordance with the protocol attached to each kit. The specific methods are described below. (Preparation of Reagents)
1) Complete Reaction Buffer: a complete reaction buffer was so prepared as to obtain a final concentration of 10 mM Tris-HCL (pH 7.2), 10 mM magnesium chloride, 0.1% bovine serum albumin, and 1 mM dithiothreitol.
2) Substrate Working Solution: 400 nM of a substrate working solution was prepared by dissolving and diluting a fluorescein-labeled IKKβ substrate peptide (amino acid sequence: GRHDSGLDSMK) with the complete reaction buffer.
3) Enzyme Working Solution: 0.2 units/mL of an enzyme working solution was prepared by diluting IKKβ solution (manufactured by Upstate Biotechnology Inc., catalogue No. 14-485) with the complete reaction buffer.
4) ATP Working Solution: 8 μM of an ATP working solution was prepared by dissolving ATP into ultrapure water followed by diluting it with the complete reaction buffer.
5) IMAP binding solution: After diluting an IMAP binding buffer with ultrapure water, an IMAP binding solution was prepared by diluting an IMAP binding reagent with the diluted IMAP binding buffer.
A test compound was dissolved in dimethylsulfoxide followed by diluting it with the complete reaction buffer to prepare 4 μM of a test compound solution.
1) To a 384-well plate, the test compound solution, the enzyme working solution, the substrate working solution, and the ATP working solution were added in an amount of 5 μL per well.
2) Incubation was performed at a room temperature for 60 minutes under light shielding.
3) The IMAP binding solution was added in an amount of 60 μL per well.
4) Incubation was performed at a room temperature for 30 minutes under light shielding.
5) Fluorescence polarization value of each well was measured by using Analyst™ HT (multimode plate reader manufactured by Molecular Devices Corporation) and Criterion Host Software v2.00 (manufactured by Molecular Devices Corporation).
6) Operations were performed in the same manner as in 1) to 5) except for changing the test compound to 0.4% dimethylsulfoxide. The obtained result was designated as a control.
7) Operations were performed in the same manner as in 1) to 5) except for changing the test compound and the enzyme working solution to 0.4% dimethylsulfoxide and the complete reaction buffer, respectively. The obtained result was designated as a background.
An IKKβ inhibition rate (%) was calculated by the following equation.
IKKβ inhibition rate (%)=100×{1−(fluorescence polarization value of test compound−fluorescence polarization value of background)/(fluorescence polarization value of control−fluorescence polarization value of background)}
On the technique in general: In fluorescence polarisation assays a small probe gives low polarisation when free and higher when bound to something large.

The inhibition is the change of the read-out against control, counted positive when it falls. Read a low inhibition as a response near the control. `Cc1c(-c2ccoc2)ccc2c(C(N)=O)c(NC(N)=O)[nH]c12` [Compound 4-81, 2-Aminocarbonylamino-6-(furan-3-yl)-7-methylindole-3-carboxamide] had an inhibition at 1 µM of 96%. For `NC(=O)Nc1[nH]c2cc(-c3ccc[nH]3)ccc2c1C(N)=O` [Compound 5-1, 2-Aminocarbonylamino-6-(pyrrol-2-yl)indole-3-carboxamide], the inhibition at 1 µM worked out at 95%. `NC(=O)Nc1[nH]c2cc(-c3cccc(CCO)c3)ccc2c1C(N)=O` [Compound 7-5] displayed an inhibition at 1 µM of 97%. For `NC(=O)Nc1[nH]c2cc(-c3ccncc3)ccc2c1C(N)=O` [Compound 7-9] the value was 98%; for `COc1cc(-c2ccc3c(C(N)=O)c(NC(N)=O)[nH]c3c2)ccc1CO` [Compound 7-14], 100%. In turn, `NC(=O)Nc1[nH]c2cc(-c3ccnc(Cl)c3)ccc2c1C(N)=O` [Compound 7-26] came in with an inhibition at 1 µM of 98%. The result for `C[C@@H](O)c1cccc(-c2ccc3c(C(N)=O)c(NC(N)=O)[nH]c3c2)c1` [Compound 7-44] reads 100%; that for `C[C@H](O)c1cccc(-c2ccc3c(C(N)=O)c(NC(N)=O)[nH]c3c2)c1` [Compound 7-45], 98%; that for `NCc1ccc(-c2ccc3c(C(N)=O)c(NC(N)=O)[nH]c3c2)cc1` [Compound 8-3], 100%. As to `CC(N)c1ccc(-c2ccc3c(C(N)=O)c(NC(N)=O)[nH]c3c2)cc1` (centres unmarked) [Compound 8-5], 1 µM produced 100% inhibition. `CC(C)(N)c1ccc(-c2ccc3c(C(N)=O)c(NC(N)=O)[nH]c3c2)cc1` [Compound 8-6] displayed an inhibition at 1 µM of 99%.

Turning to `NC(=O)Nc1[nH]c2cc(C#Cc3ccccc3)ccc2c1C(N)=O` [Compound 9-1, 2-Aminocarbonylamino-6-phenylethynylindole-3-carboxamide], the inhibition at 1 µM came out at 87%. In turn, `NC(=O)Nc1[nH]c2cc(C#CCO)ccc2c1C(N)=O` [Compound 9-2, 2-Aminocarbonylamino-6-(3-hydroxy-1-propynyl) indole-3-carboxamide] showed an inhibition at 1 µM of 95%. For `CN(C)CC#Cc1ccc2c(C(N)=O)c(NC(N)=O)[nH]c2c1` [Compound 9-18, 2-Aminocarbonylamino-6-(3-dimethylamino-1-propynyl) indole-3-carboxamide], at 1 µM the inhibition was 94%. As for `C#Cc1ccc2c(C(N)=O)c(NC(N)=O)[nH]c2c1` [Compound 10-1, 2-aminocarbonylamino-6-ethynylindole-3-carboxamide], at 1 µM the inhibition was 100%. The result for `CCc1ccc2c(C(N)=O)c(NC(N)=O)[nH]c2c1` [Compound 11-1, 2-Aminocarbonylamino-6-ethylindole-3-carboxamide] reads 95%; that for `NC(=O)Nc1[nH]c2cc(C3CCCCC3)ccc2c1C(N)=O` [Compound 11-4, 2-Aminocarbonylamino-6-cyclohexylindole-3-carboxamide], 100%; that for `NC(=O)Nc1[nH]c2cc(CCCCO)ccc2c1C(N)=O` [Compound 11-6, 2-Aminocarbonylamino-6-(4-hydroxybutyl)indole-3-carboxamide], 98%. For `CN(C)CCCc1ccc2c(C(N)=O)c(NC(N)=O)[nH]c2c1` [Compound 11-8, 2-Aminocarbonylamino-6-(3-dimethylaminopropyl) indole-3-carboxamide] the value was 95%. The result for `COCCCc1ccc2c(C(N)=O)c(NC(N)=O)[nH]c2c1` [Compound 11-10, 2-Aminocarbonylamino-6-(3-methoxypropyl)indole-3-carboxamide] reads 94%. `NC(=O)Nc1[nH]c2cc(-c3cccc(CO)c3)ccc2c1C(N)=O` [Compound 12-1, 2-aminocarbonylamino-6-(3-hydroxymethylphenyl)indole-3-carboxamide] had an inhibition at 1 µM of 100%.

`NC(=O)Nc1[nH]c2cc(-c3ccc(CO)o3)ccc2c1C(N)=O` [Compound 12-2, 2-Aminocarbonylamino-6-(5-hydroxymethylfuran-2-yl) indole-3-carboxamide] showed an inhibition at 1 µM of 99%.

In turn, `CC(C)NCc1cccc(-c2ccc3c(C(N)=O)c(NC(N)=O)[nH]c3c2)c1` [Compound 13-5, 2-Aminocarbonylamino-6-(3-isopropylaminomethylphenyl) indole-3-carboxamide] registered an inhibition at 1 µM of 100%. The result for `NC(=O)Nc1[nH]c2cc(-c3cccc(CNCCO)c3)ccc2c1C(N)=O` [Compound 13-13, 2-Aminocarbonylamino-6-[3-(2-hydroxyethylaminomethyl)phenyl]indole-3-carboxamide] reads 100%; that for `NC(=O)Nc1[nH]c2cc(-c3ccc(CNC4CC4)o3)ccc2c1C(N)=O` [Compound 13-15, 2-Aminocarbonylamino-6-(5-cyclopropylaminomethylfuran-2-yl)indole-3-carboxamide], 100%; that for `CNCc1ccc(-c2ccc3c(C(N)=O)c(NC(N)=O)[nH]c3c2)s1` [Compound 13-24, 2-Aminocarbonylamino-6-(5-methylaminomethylthiophen-2-yl)indole-3-carboxamide], 98%. Regarding `NC(=O)Nc1[nH]c2cc(CO)ccc2c1C(N)=O` [Compound 16-1, 2-Aminocarbonylamino-6-hydroxymethylindole-3-carboxamide], the inhibition at 1 µM came out at 78%. The molecule `NC(=O)Nc1[nH]c2cc(C3SCCS3)ccc2c1C(N)=O` [Compound 20-1, 2-Aminocarbonylamino-6-(1,3-dithiolan-2-yl)indole-3-carboxamide] displayed an inhibition at 1 µM of 100%. `NC(=O)Nc1[nH]c2cc(C(=O)N3CCCC3)ccc2c1C(N)=O` [Compound 22-2]: the inhibition at 1 µM is 70%.

Molecule `NC(=O)Nc1[nH]c2cc(C(=O)NCc3ccccc3)ccc2c1C(N)=O` [Compound 22-9] had an inhibition at 1 µM of 100%.

As to `NC(=O)Nc1[nH]c2cc(CN3CCCC3)ccc2c1C(N)=O` [Compound 24-2], testing at 1 µM gave an inhibition of 100%. For `CCSCc1ccc2c(C(N)=O)c(NC(N)=O)[nH]c2c1` [Compound 25-3] the value was 100%.
